What all share (assay): AK assay 384-well format, Prestwick library screening
For test [1], the system named is S. aureus strain USA300-0114. The format is cell-based, Staphylococcus aureus. The conditions noted are these: for fold induction at 50 µM: Staphylococcus aureus, USA300, 3 h.
The test system of another test is E. faecium. Type of test: cell-based, Enterococcus faecium. The following applies: for fold induction at 50 µM: Enterococcus faecium, 3 h.
The test system of a further test is E. cloacae. Type of test: cell-based, Enterobacter cloacae. The following applies: for fold induction at 50 µM: Enterobacter cloacae, 3 h.
Another test concerns E. coli. Type of test: cell-based, Escherichia coli. The conditions noted are these: for fold induction at 50 µM: Escherichia coli, 3 h.
In the next test the test system is P. aeruginosa. The format is cell-based, Pseudomonas aeruginosa. The following applies: for fold induction at 50 µM: Pseudomonas aeruginosa, 3 h.
A further test has as its system K. pneumoniae. Type of test: cell-based, Klebsiella pneumoniae. The conditions noted are these: for fold induction at 50 µM: Klebsiella pneumoniae, 3 h.
For test [2], the system named is A. baumannii strain 98-37-09. The format is cell-based, Acinetobacter baumannii. The conditions noted are these: for fold induction at 50 µM: Acinetobacter baumannii, 983709, 3 h.
Where [3] appears, read: 50 μM final drug concentration, 384-well format, cutoff for positive-scoring molecules 3-fold increase.
[4] abbreviates: 50 μM final drug concentration, planktonic, cutoff for positive-scoring molecules 3-fold increase, read-out: AK-based Prestwick Library Screening Results, S. aureus (fold increase in extracellular AK activity).
The mark [5] stands for this setting: 50 μM final drug concentration, planktonic, cutoff for positive-scoring molecules 3-fold increase, read-out: AK-based Prestwick Library Screening Results, E. faecium (fold increase in extracellular AK activity).
The mark [6] stands for this setting: 50 μM final drug concentration, planktonic, cutoff for positive-scoring molecules 3-fold increase, read-out: AK-based Prestwick Library Screening Results, E. cloacae (fold increase in extracellular AK activity).
The mark [7] stands for this setting: 50 μM final drug concentration, planktonic, cutoff for positive-scoring molecules 3-fold increase, read-out: AK-based Prestwick Library Screening Results, E. coli (fold increase in extracellular AK activity).
Setting [8] is: 50 μM final drug concentration, planktonic, cutoff for positive-scoring molecules 3-fold increase, read-out: AK-based Prestwick Library Screening Results, P. aeruginosa (fold increase in extracellular AK activity).
Setting [9] is: 50 μM final drug concentration, planktonic, cutoff for positive-scoring molecules 3-fold increase, read-out: AK-based Prestwick Library Screening Results, K. pneumoniae (fold increase in extracellular AK activity).
Where [10] appears, read: 50 μM final drug concentration, planktonic, cutoff for positive-scoring molecules 3-fold increase, read-out: AK-based Prestwick Library Screening Results, A. baumannii (fold increase in extracellular AK activity).

Where a name gives a salt, the structure may show the parent alone. Read-outs that look alike come from different tables or passages of the source.

Consider `Cc1c(N(C)C)c(=O)n(-c2ccccc2)n1C` [Amidopyrine], for which the “AK-based Prestwick Library Screening Results, S. aureus (increase in extracellular AK activity)” value in test [1] (setting [3]) is listed as 0.4. For the same compound, the “AK-based Prestwick Library Screening Results, E. faecium (increase in extracellular AK activity)” value in the test with E. faecium (setting [3]) is 0.9. In the test with E. cloacae (setting [3]), the “AK-based Prestwick Library Screening Results, E. cloacae (increase in extracellular AK activity)” value worked out at 0.4. Also, the “AK-based Prestwick Library Screening Results, E. coli (increase in extracellular AK activity)” value with E. coli (setting [3]) came to 0.5. Also, in the test on P. aeruginosa (setting [3]), the “AK-based Prestwick Library Screening Results, P. aeruginosa (increase in extracellular AK activity)” value was found to be 0.4. In addition, the “AK-based Prestwick Library Screening Results, K. pneumoniae (increase in extracellular AK activity)” value in the test on K. pneumoniae (setting [3]) came to 0.5. Also, the “AK-based Prestwick Library Screening Results, A. baumannii (increase in extracellular AK activity)” value in test [2] (setting [3]) was 0.4.

For the compound `NCC[C@H](O)C(=O)N[C@@H]1C[C@H](N)[C@@H](O[C@H]2O[C@H](CN)[C@@H](O)[C@H](O)[C@H]2O)[C@H](O)[C@H]1O[C@H]1O[C@H](CO)[C@@H](O)[C@H](N)[C@H]1O` [Amikacin hydrate], the fold induction at 50 µM was found to be 1.3 in test [1] (50 μM final drug concentration, planktonic, cutoff for positive 3-fold increase, read-out: AK-based Prestwick Library Screening Results, S. aureus (fold increase in extracellular AK activity)); 1 with E. faecium (50 μM final drug concentration, planktonic, cutoff for positive 3-fold increase, read-out: AK-based Prestwick Library Screening Results, E. faecium (fold increase in extracellular AK activity)); 4.9 in the test with E. cloacae (50 μM final drug concentration, planktonic, cutoff for positive 3-fold increase, read-out: AK-based Prestwick Library Screening Results, E. cloacae (fold increase in extracellular AK activity)); 22.1 with E. coli (50 μM final drug concentration, planktonic, cutoff for positive 3-fold increase, read-out: AK-based Prestwick Library Screening Results, E. coli (fold increase in extracellular AK activity)); 14.2 with P. aeruginosa (50 μM final drug concentration, planktonic, cutoff for positive 3-fold increase, read-out: AK-based Prestwick Library Screening Results, P. aeruginosa (fold increase in extracellular AK activity)); 6.2 in the test on K. pneumoniae (50 μM final drug concentration, planktonic, cutoff for positive 3-fold increase, read-out: AK-based Prestwick Library Screening Results, K. pneumoniae (fold increase in extracellular AK activity)). In test [2] (50 μM final drug concentration, planktonic, cutoff for positive 3-fold increase, read-out: AK-based Prestwick Library Screening Results, A. baumannii (fold increase in extracellular AK activity)), the fold induction at 50 µM turned out to be 7.6.

For `N=C(N)NC(=O)c1nc(Cl)c(N)nc1N` [Amiloride hydrochloride dihydrate], the fold induction at 50 µM in test [1] (50 μM final drug concentration, 384-well format, cutoff for positive-scoring molecules 3-fold increase, read-out: AK-based Prestwick Library Screening Results, S. aureus (increase in extracellular AK activity)) stood at 0.4; in the test on E. faecium (50 μM final drug concentration, 384-well format, cutoff for positive-scoring molecules 3-fold increase, read-out: AK-based Prestwick Library Screening Results, E. faecium (increase in extracellular AK activity)), 0.8; in the test with E. cloacae (50 μM final drug concentration, 384-well format, cutoff for positive-scoring molecules 3-fold increase, read-out: AK-based Prestwick Library Screening Results, E. cloacae (increase in extracellular AK activity)), 0.4; in the test on E. coli (50 μM final drug concentration, 384-well format, cutoff for positive-scoring molecules 3-fold increase, read-out: AK-based Prestwick Library Screening Results, E. coli (increase in extracellular AK activity)) it was 0.5; in the test with P. aeruginosa (50 μM final drug concentration, 384-well format, cutoff for positive-scoring molecules 3-fold increase, read-out: AK-based Prestwick Library Screening Results, P. aeruginosa (increase in extracellular AK activity)), 0.3; in the test on K. pneumoniae (50 μM final drug concentration, 384-well format, cutoff for positive-scoring molecules 3-fold increase, read-out: AK-based Prestwick Library Screening Results, K. pneumoniae (increase in extracellular AK activity)), 0.4. Also, the fold induction at 50 µM in test [2] (50 μM final drug concentration, 384-well format, cutoff for positive-scoring molecules 3-fold increase, read-out: AK-based Prestwick Library Screening Results, A. baumannii (increase in extracellular AK activity)) was 0.4.

On to `NCCCCCC(=O)O` [Aminocaproic acid], for which the fold induction at 50 µM in test [1] (read-out: AK-based Prestwick Library Screening Results, S. aureus (fold increase in extracellular AK activity)) turned out to be 1.2; in the test with E. faecium (read-out: AK-based Prestwick Library Screening Results, E. faecium (fold increase in extracellular AK activity)) it was 1.1; in the test on E. cloacae (read-out: AK-based Prestwick Library Screening Results, E. cloacae (fold increase in extracellular AK activity)), 1.6; in the test on E. coli (read-out: AK-based Prestwick Library Screening Results, E. coli (fold increase in extracellular AK activity)), 1.2; in the test with P. aeruginosa (read-out: AK-based Prestwick Library Screening Results, P. aeruginosa (fold increase in extracellular AK activity)) it was 1.1; in the test on K. pneumoniae (read-out: AK-based Prestwick Library Screening Results, K. pneumoniae (fold increase in extracellular AK activity)), 1.2. Further, the fold induction at 50 µM in test [2] (read-out: AK-based Prestwick Library Screening Results, A. baumannii (fold increase in extracellular AK activity)) is 1.3.

For `Nc1ccc(C(=O)NCC(=O)O)cc1` [Aminohippuric acid], the fold induction at 50 µM in test [1] (setting [4]) came out at 0.6; in the test on E. faecium (setting [5]) it was 0.9; in the test with E. cloacae (setting [6]) it was 0.8; in the test with E. coli (setting [7]) it was 0.7; in the test on P. aeruginosa (setting [8]) it was 0.7; in the test with K. pneumoniae (setting [9]), 0.6. Further, the fold induction at 50 µM in test [2] (setting [10]) is 0.7.

As to `Cn1c(=O)c2[nH]cnc2n(C)c1=O` [Aminophylline], the fold induction at 50 µM in test [1] (setting [4]) came to 0.6; with E. faecium (setting [5]), 0.9; in the test on E. cloacae (setting [6]), 0.8; with E. coli (setting [7]), 0.6; in the test on P. aeruginosa (setting [8]) it was 0.8; with K. pneumoniae (setting [9]) it was 0.6. Also, the fold induction at 50 µM in test [2] (setting [10]) came to 0.7.

In the case of `c1ccc(CNc2ncnc3[nH]cnc23)cc1` [Aminopurine, 6-benzyl], in test [1] (setting [3]), the “AK-based Prestwick Library Screening Results, S. aureus (increase in extracellular AK activity)” value worked out at 0.7. The “AK-based Prestwick Library Screening Results, E. faecium (increase in extracellular AK activity)” value in the test with E. faecium (setting [3]) turned out to be 0.9. Moreover, the “AK-based Prestwick Library Screening Results, E. cloacae (increase in extracellular AK activity)” value in the test with E. cloacae (setting [3]) came to 1.1. In the test with E. coli (setting [3]), the “AK-based Prestwick Library Screening Results, E. coli (increase in extracellular AK activity)” value worked out at 0.9. Besides, the “AK-based Prestwick Library Screening Results, P. aeruginosa (increase in extracellular AK activity)” value in the test with P. aeruginosa (setting [3]) is given as 0.9. For the same compound, the “AK-based Prestwick Library Screening Results, K. pneumoniae (increase in extracellular AK activity)” value with K. pneumoniae (setting [3]) came out at 0.8. For the same compound, the “AK-based Prestwick Library Screening Results, A. baumannii (increase in extracellular AK activity)” value in test [2] (setting [3]) was determined as 0.8.

Regarding `CCCCc1oc2ccccc2c1C(=O)c1cc(I)c(OCCN(CC)CC)c(I)c1` [Amiodarone hydrochloride], the fold induction at 50 µM in test [1] (planktonic S. aureus, 50 μM final drug concentration, 384-well, cutoff for positive-scoring molecules 3-fold increase, read-out: AK-based Prestwick Library Screening Results: S. aureus (increase in extracellular AK activity)) came out at 0.7; in the test with E. faecium (planktonic E. faecium, 50 μM final drug concentration, 384-well, cutoff for positive-scoring molecules 3-fold increase, read-out: AK-based Prestwick Library Screening Results: E. faecium (increase in extracellular AK activity)), 1.7; with E. cloacae (planktonic E. cloacae, 50 μM final drug concentration, 384-well, cutoff for positive-scoring molecules 3-fold increase, read-out: AK-based Prestwick Library Screening Results: E. cloacae (increase in extracellular AK activity)), 0.5; in the test with E. coli (planktonic E. coli, 50 μM final drug concentration, 384-well, cutoff for positive-scoring molecules 3-fold increase, read-out: AK-based Prestwick Library Screening Results: E. coli (increase in extracellular AK activity)) it was 0.7; in the test with P. aeruginosa (planktonic P. aeruginosa, 50 μM final drug concentration, 384-well, cutoff for positive-scoring molecules 3-fold increase, read-out: AK-based Prestwick Library Screening Results: P. aeruginosa (increase in extracellular AK activity)) it was 0.5; with K. pneumoniae (planktonic K. pneumoniae, 50 μM final drug concentration, 384-well, cutoff for positive-scoring molecules 3-fold increase, read-out: AK-based Prestwick Library Screening Results: K. pneumoniae (increase in extracellular AK activity)), 0.6. In addition, in test [2] (planktonic A. baumannii, 50 μM final drug concentration, 384-well, cutoff for positive-scoring molecules 3-fold increase, read-out: AK-based Prestwick Library Screening Results: A. baumannii (increase in extracellular AK activity)), the fold induction at 50 µM is 2.2.
